Experiment [1] relates to Mycolicibacterium fortuitum αDOX (SEQ ID NO: 7), fatty acid alpha-dioxygenase, K0VMX8, N-terminal His-tag variant SEQ ID NO: 261. As to the kind of experiment: Alpha-dioxygenase activity assay (oxygen consumption, TON). The format is biochemical. The conditions noted are these: fatty acid 100 µM, enzyme 6 ppm, 50 mM HEPES pH 9.0, 37°C; initial rate of oxygen consumption / enzyme concentration. The text has this:
(§1) Mycolicibacterium fortuitum αDOX (SEQ ID NO: 7) is a fatty acid alpha-dioxygenase that converts fatty acids into the corresponding 2-hydroperoxy fatty acids and is included as an example of the present invention. A codon optimized gene (SEQ ID NO: 260) encoding for an alpha-dioxygenase variant (SEQ ID NO: 261), including an N-terminal amino acid sequence containing a His-tag was designed and synthesized by Genscript. After gene synthesis, the protein was expressed and purified. In brief, the complete synthetic gene sequence was subcloned into a pET30a vector using the NdeI/HindIII cloning sites. For heterologous expression, Escherichia coli BL21 (DE3) cells were transformed with the recombinant plasmid and a single colony was inoculated into LB medium containing kanamycin (50 mg/L). A pre-starter culture was then inoculated into flasks containing Magic Media (Thermo Fisher, Catalog # K6803) supplemented with kanamycin (50 mg/L) and incubated at 16 °C for 72 h. At an OD600nm = 0.5 - 1.0, 5-aminolevulinic acid (final concentration 0.5 mM) was added. Cells were harvested by centrifugation at 5000 rpm and 4°C and the pellet was lysed using a bacterial cell lysis buffer (B-PER - Themo Fisher, Waltham, MA). After centrifugation, the supernatant was collected, and the protein was purified by one-step purification using HisPur™ Ni-NTA Spin Columns (Thermo Scientific, Catalog # 88226) and standard protocols known in the art. The protein was concentrated using a 10 kDa MW cutoff Amicon Ultra centrifugal filter unit (Millipore Sigma, Catalog# UFC901024), followed by desalting using a disposable PD-10 50 mM Tris-HCl, 500 mM NaCl, and 10% Glycerol at pH 8.0. The purified enzyme was stored at -80 °C until use.
(§2) Reactions with alpha-dioxygenases were performed as follows. […] The reaction was incubated for up to 10 minutes at 37°C with 200 rpm agitation and the conversion was monitored using an oxygen sensor. The TON (in s-1) were calculated as the ratio between the initial rate of oxygen consumption (in µM/s) and the concentration of enzyme (in µM). […]

Experiment [2] has as its system Streptomyces avermitilis αDOX (SEQ ID NO: 13), fatty acid alpha-dioxygenase, Q82M86, N-terminal His-tag variant SEQ ID NO: 273 (comparative). The experiment is described as above. It counts as biochemical. The conditions noted are these: fatty acid 100 µM, enzyme 6 ppm, 50 mM HEPES pH 9.0, 37°C; initial rate of oxygen consumption / enzyme concentration.
From the text: as §1, with “Streptomyces avermitilis αDOX” for “Mycolicibacterium fortuitum αDOX”, “NO: 13)” for “NO: 7)”, “as a comparative” for “as an”, “NO: 272)” for “NO: 260)”, “NO: 273),” for “NO: 261),”, “art. […]” for “art. The protein was concentrated using a 10 kDa MW cutoff Amicon Ultra centrifugal filter unit (Millipore Sigma, Catalog# UFC901024), followed by desalting using a disposable PD-10 50 mM Tris-HCl, 500 mM NaCl, and 10% Glycerol at pH 8.0. The purified enzyme was stored at -80 °C until use.”
as §2

3 molecules from patent EP3981864A1, “DETERGENT COMPOSITION” (priority 2020, dated 2022) can be followed below.

For the molecule `CCCCCCCCCCCCCCCCCC(=O)O` [Stearic Acid], the “Stearic Acid, TON” value in experiment [1] came out at 1.66 s⁻¹; in experiment [2], 0.10 s⁻¹.
Turning to `CCCCCCCC/C=C\CCCCCCCC(=O)O` [Oleic Acid], the “Oleic Acid, TON” value in experiment [1] and in experiment [2] was 0.00 s⁻¹ each time.
On to `CCCCCCCCCCCCCCCC(=O)O` [Palmitic Acid], for which the “Palmitic Acid, TON” value in experiment [1] and in experiment [2] was 0.00 s⁻¹ in each case.
